Data reported in patent US12083109B2, “Neurokinin antagonists and uses thereof” (California Institute of Technology, priority 2017, dated 2024).
“Also recorded” adds a separate entry of the source.

What was measured:
Nk3R [1] = target: T1, Nk3R (Mus musculus, UniProt P47937); assay: Shock reactivity (footshock) after tone test, osanetant; type: in vivo; design: from tissue; host or cells: Living mice (wild-type C57Bl6/N males, Charles River)
T1 sequence (P47937 1-452): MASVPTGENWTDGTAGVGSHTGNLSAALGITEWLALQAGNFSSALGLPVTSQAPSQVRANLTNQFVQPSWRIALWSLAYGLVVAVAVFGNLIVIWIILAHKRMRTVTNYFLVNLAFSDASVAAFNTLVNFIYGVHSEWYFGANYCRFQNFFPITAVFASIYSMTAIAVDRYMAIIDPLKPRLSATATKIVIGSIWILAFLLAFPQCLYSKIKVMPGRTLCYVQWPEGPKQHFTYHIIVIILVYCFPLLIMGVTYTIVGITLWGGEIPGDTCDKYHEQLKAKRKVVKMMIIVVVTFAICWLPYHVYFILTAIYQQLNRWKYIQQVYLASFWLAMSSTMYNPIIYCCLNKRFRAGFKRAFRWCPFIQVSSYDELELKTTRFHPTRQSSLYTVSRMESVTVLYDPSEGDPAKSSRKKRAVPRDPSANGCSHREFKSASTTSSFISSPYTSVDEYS
Method: The protocol for tone trace fear conditioning was performed as previously described (Cushman et al., 2014; incorporated by reference in its entirety) using fear conditioning boxes previously described in detail (Haubensak et al., 2010; Kunwar et al., 2015; incorporated by reference in their entirety). Briefly, mice were transported in squads of four on a white cart to a novel behavioral testing room containing 4 sound-attenuating fear-conditioning chambers (Med Associates). This “training context” was comprised of flat grid flooring (wired to a shock generator and scrambler for footshock delivery, Med Associates), houselights, and the presence of an internal fan for background noise. Chambers were sprayed with 70% Simple Green solution on the underlying chamber pan to generate a unique contextual scent and chambers were cleaned with 70% EtOH between squads. Trace fear conditioning consisted of a 3 minute baseline period followed by 3 tone-shock trials consisting of a 20 second tone conditional stimulus (CS; 75 dB, 2800 Hz), a 20 second trace interval and a 2 second footshock unconditional stimulus (US; 0.7 mA). The inter-trial interval (ITI) between trials was 60 seconds. Mice remained in the chambers an additional 60 seconds before being transported back to the vivarium. The following day, mice were transported in fresh cardboard boxes to a novel behavioral testing room consisting of 4 distinct fear-conditioning boxes to test for tone fear. The “test context” consisted of the houselights and fan turned off, uneven grid flooring, a 1% acetic acid scent and a black plastic insert used to generate a triangular roof. Testing was performed identical to training with the exception that shocks were omitted from test trials to allow for behavior assessment to the tone. A single shock was administered in the last minute of testing to assess activity burst responding to the shock. This allowed assessment of reactivity to the shock under our various manipulations performed during testing without disrupting fear acquisition by performing manipulations during training. All experimental manipulations and data shown herein were performed during the test phase of fear conditioning (training data not shown). Training and testing context were counterbalanced across mice. Freezing behavior during the baseline period as well as during each tone presentation (“during”) and trace interval (“post”) were assessed as previously described (Zelikowsky et al., 2014; incorporated by reference in its entirety) using automated near-infrared video tracking equipment and computer software (VideoFreeze, Med Associates). Shock reactivity (motion, arbitrary units) was measured during the 2 second shock US as well as the 3 seconds immediately following.
Mice were administered the Nk3R antagonist osanetant (Axon Medchem, Axon 1533) either systemically or intra-brain region. Osanctant was dissolved in saline with 0.1% Tween 20 (vehicle). […] For microinfusions, guide cannulas were removed from mice and replaced with injector cannulas (Plastics One), which protruded 0.5 mm from the tip of the guide cannula. Injectors were attached to 5 μl Hamilton syringes with PE tubing (Plastics One) and mounted on a microinfusion pump (Harvard Apparatus) for controlled infusion of osanetant (0.3 μl vehicle with 375 ng dose per site injected over 6 minutes). […]

Nk3R [2] = target: T1, Nk3R; assay: Acoustic startle response, osanetant; type: in vivo; design: from tissue; host or cells: Living mice (wild-type C57Bl6/N males, Charles River); conditions: SIS mice; acute systemic osanetant; listed as Osanetant
Method: Mice were administered the Nk3R antagonist osanetant (Axon Medchem, Axon 1533) either systemically or intra-brain region. Osanctant was dissolved in saline with 0.1% Tween 20 (vehicle). For systemic administration mice received an intraperitoneal (i.p.) injection (5 mg/kg) 20 minutes prior to behavioral testing. For microinfusions, guide cannulas were removed from mice and replaced with injector cannulas (Plastics One), which protruded 0.5 mm from the tip of the guide cannula. Injectors were attached to 5 μl Hamilton syringes with PE tubing (Plastics One) and mounted on a microinfusion pump (Harvard Apparatus) for controlled infusion of osanetant (0.3 μl vehicle with 375 ng dose per site injected over 6 minutes). For experiments using systemic administration of clozapine-N-oxide (CNO), CNO (Enzo Life Sciences-Biomol, BML-NS105-0005) was dissolved in saline (9 g/L NaCl) and injected (i.p.) at 5 mg/kg for hM4DREADD silencing or 2 mg/kg for hM3DREADD activation 20 minutes prior to behavioral testing. CNO was also administered chronically in drinking water (0.5 mg CNO/100 ml water).

SIS-induced increased shock reactivity (Nk3R [1]; SIS mice, osanetant 5 mg/kg i.p. 20 min before test): blocked
reactivity to footshock (SIS-enhanced) (Nk3R [1]; osanetant injection into CeA): reduced; also recorded: blocked
responses to the footshock (Nk3R [1]; osanetant microinfusion into DMH): had no effect
shock reactivity (Nk3R [1]; osanetant microinfusion into dBNSTa): no effect
SIS-induced enhanced acoustic startle responding (Nk3R [2]): blocked; also recorded: attenuated
Compound: CC(=O)N(C)C1(c2ccccc2)CCN(CCC[C@]2(c3ccc(Cl)c(Cl)c3)CCCN(C(=O)c3ccccc3)C2)CC1 [osanetant, N-(1-{3-[(3R)-1-benzoyl-3-(3,4-dichlorophenyl)piperidin-3-yl]propyl}-4-phenylpiperidin-4-yl)-N-methylacetamide]
SIS-induced increase in shock reactivity (Nk3R [1]; osanetant daily during two-week isolation, tested off-drug): a trend to protection; also recorded: reduced, but not significantly
